Test results published in patent US20260286322A1, “PROTEIN TYROSINE P[…] DOMAIN PEPTIDE DIMER FOR NERVOUS SYSTEM REPAIR” (NervGen Pharma Corp., priority 2023, published 2026).

What was measured:
SCI rats = experiment: BBB sub-score (toe clearance, paw position, trunk stability, tail position) in SCI rats; format: in vivo, rat
Experimental: Animals were prepared according to the methods described above in Example 3.
Lyophilized Compound 8 and Compound 4 were separately dissolved in saline and injected s.c. at a volume of 500 μl to animal once daily from day 1-day 49 post spinal cord injury.
The target dose concentration was 0.8 mg/ml. After reconstitutions, the solutions were aliquoted and kept at −20° C. until dosing.
12-13 rats were used in each of the following three groups: • 1) Control group: SCI+saline alone • 2) Testing group: SCI+Compound 4 in saline • 3) Testing group: SCI+Compound 8 in saline.
Spinal cord injury (SCI) was introduced to the animals and post-operative care was provided to the animals according to the methods described in Example 3.
The BBB sub-scores quantify the recovery of toe clearance, paw position, trunk stability and tail use independent of forelimb-hindlimb coordination. BBB sub-scores were calculated using the observations recorded in the BBB records sheets. During BBB testing, the predominant position of the hind paws (parallel vs rotated), toe clearance, trunk stability and tail position (up, down, middle) were evaluated for animals reaching a BBB score of 10 or higher. Animals scoring less than 10 in BBB scale were considered to have BBB sub-score of “0”.
As described above in Example 3, the upper points on the BBB scale (14-21) quantify fine motor movements associated with hind limb locomotor including toe clearance, predominant paw position, trunk stability, and tail position. These fine motor movements are only considered if animals display consistent coordination. A BBB sub-score was applied to quantify these improvements independent of coordination.
FIG. 8B depicts violin plots presenting distributions of the weekly average BBB sub-scores in the saline alone, Compound 4, and Compound 8 treatment cohorts of SCI rats. Each data point represents a weekly average BBB sub-score in the saline alone (control), Compound 4, and Compound 8 treatment cohorts as annotated on the X-axis. The numbers adjacent to the data points indicate the numbers of days post-SCI at which individual and treatment cohort weekly average BBB sub-scores were calculated. Statistical comparison of the treatment effects was performed using Friedman's test (repeated measures ANOVA for nonparametric values) with Dunn's correction for multiple comparisons and p-value of less than 0.05 defined as the criterion of statistical significance.

[1] = Body weights of SCI rats during treatment; format: in vivo, rat; settings: SCI rats vs saline control, measured until the 13th week
Experimental: Adult, female Lewis rats (~160 g on arrival) from Envigo were used as the subjects receiving the treatment in the study. The rats were assigned unique identification numbers (PGI ID and tail marks) and housed in ventilated cages. All rats were examined, handled, and weighed prior to initiation of the study to assure adequate health and suitability. During the course of the study, 12/12 light/dark cycles were maintained. The room temperature was maintained between […] and 23° C. with a relative humidity maintained around 50%. Chow and water were provided adlibitum for the duration of the study. The rats were randomly assigned across treatment groups. Body weights were taken twice a week during the study.
(§1) Lyophilized Compound 8 was dissolved in saline and injected s.c. at a volume of 500 μl to animal once daily from day 1-day 49 post spinal cord injury.
(§2) The dose concentration was 0.8 mg/ml, corresponding to 400 μg/rat. After reconstitutions, the solution was aliquoted and kept at −20° C. until dosing.
Body weights were taken twice a week for the first 7 weeks after injury and then weekly until endpoint. Health and survival of the animals was evaluated during bladder expressions, body weight and behavioral test, any health concerns were reported and discussed with a veterinarian if needed.

[2] = test system: rat model of thoracic traumatic Spinal Cord Injury (SCI); experiment: Bladder function, bladder score and urinary complications in SCI rats; format: in vivo
Experimental: as §1, §2
Spinal cord injury (SCI) was introduced to the rats by surgery using the Infinite Horizon (IH) Impactor (200 kDyn force) described by Scheff et al. 2003. The surgery was performed with aseptic procedures in a designated area under deep anesthesia. Rats were anesthetized with isoflurane (4% for induction, 2% for maintenance), and O2 (300 cm^3/min) mixture. Hair was removed from the surgical site with clippers and the skin wase scrubbed with an antiseptic detergent. To maintain body temperature the animals were placed upon a homoeothermic blanket system. The T8 Vertebra of the rat was located externally, and an incision was made exposing the vertebral column from T6-T11. A laminectomy was performed using a surgical microscope to expose the dorsal spinal cord at the thoracic (T8) vertebral level. The vertebral column was stabilized by clamping the nearest rostral and caudal vertebral processes and the injury was produced using the IH impactor device at a 200 kDyn force. After each lesion the IH graphs and impact data were reviewed and recorded, rats presenting an impact force more than 10% higher or lower than expected and/or any abnormality on the force/displacement impact graphs were excluded from the study. Additionally, animals scoring more than 1 points in the Basso, Beattie and Bresnahan (BBB) score scale at 1 days after SCI were excluded for the study as well.
Starting the day after lesion animals were observed twice a day and bladders were manually expressed using gentle abdominal pressure. Any abnormal appearance of the urine (i.e. cloudy urine, bloody urine) was recorded, and the size of the bladder estimated by trained researchers in order to obtain a categorical score (bladder score) (empty bladders=0; extra-small bladders=1; small bladders=2, medium bladders=3, large bladders=4). Urinary complications (bloody urine, foul-smelling urine, urine-stained fur) were reported and treated with SC fluids twice a day, and antibiotic treatment if the issues persisted. Bladder expression continue until spontaneous voiding was observed (empty bladder for 3 consecutive days).
During bladder expressions the size of each bladder was estimated by trained researchers and a semi-quantitative score was obtained. Daily estimates of urine retention were obtained by adding the bladder size scores of AM and PM bladder expressions. FIG. 5 illustrates the weekly average of urine retention in the rats in the testing group that were treated with Compound 8 in saline, compared to the rats in control group that were treated with vehicle control (saline).
Urinary complications including bloody urine, foul-smelling urine, and urine-stained fur were monitored. When a new complication was observed after resolutions of a previous event, it was considered repetitive. Animals would be euthanized if the complications persisted after an additional cycle of antibiotics, when bladders could not be expressed or when general health deterioration was observed.
Urinary complications, such as repetitive bloody urine, urine-stained fur and urinary infections were observed, recorded, and treated, as needed.
In this study, the effects of Compound 8 in improving the recovery of open field locomotor performance and bladder function in the SCI rats were further evaluated in comparison with Compound 4 by assessing the BBB scores and bladder scores according to the methods described in Example 3.
In this assessment, 12-13 rats were included in each of the following groups (1) Control group 1: SCI+saline alone; (2) Control group 2: SCI+Compound 4 in saline; (3) Testing group: SCI+Compound 8. […]

## TAT-Cys-rodent PTPRS wedge domain homodimer [Compound 8]
SCI rats; FIG. 8A
  sustained trend of continued functional improvement in BBB sub-score: apparent
SCI rats; Friedman's test, Dunn's correction, p=0.0008 Compound 8, p>0.9999 Compound 4
  effect on weekly average BBB sub-score vs saline alone: statistically significant effect
SCI rats; Friedman's test, Dunn's correction, p=0.0201
  effect on weekly average BBB sub-score vs Compound 4: statistically significant effect
SCI rats; after day 49
  functional improvement (BBB sub-score achievers) after discontinuation of administration: continued functional improvement
SCI rats; day post-SCI, 0.8 mg/ml, 500 μl s.c. once daily day 1-49
  onset of functional improvement in BBB sub-score: 21 days
SCI rats; each time point post-SCI, e.g. day 28, 42, 63, 70, 77, 84
  percentage of rats achieving BBB sub-score of 1 or better, compared with Compound 4 or saline alone groups: higher
[1]
  effect on body weights: no adverse effects on body weights
[2]; RM ANOVA, Tukey, p=0.0001 vs saline, p=0.0085 vs Compound 4
  average weekly bladder scores compared with Compound 4 or saline alone: significantly lower
[2]; during the course of the study
  Euthanasia due to Urinary Complications: none
  Repetitive Urinary Complications (animals): 1 out of 13
  Repetitive Urinary Complications (percentage): 8%
  Urinary Complications (animals): 4 out of 13
  Urinary Complications (percentage): 31%
[2]; during weeks 10 to 13
  percentage of rats with bladder scores of 2 or better: more than 40%
[2]; evident from week 8 to 13
  estimated size of bladders: decrease in the estimated size of bladders
[2]; starting on week 6 post-SCI
  percentage of rats with bladder scores of 2 or better: About 25%
[2]; vs rats receiving vehicle control
  frequency of urinary complications compared with vehicle control: less frequent
[2]; vs vehicle control, trend noticeable starting at week 4 after SCI
  urine retention (weekly average of estimated bladder size scores): less urine retention
